The source of these data is patent US8367349B2, “Methods for identifying modulators of LRRK2” (Medical Research Council, priority 2010, dated 2013).

One may read the IC50 as the point on the concentration scale where inhibition reaches its midpoint.

Assay [1] addresses T1, GFP-LRRK2 (Homo sapiens, UniProt Q5S007).
T1 construct: immunoprecipitates of stably expressed full length GFP-LRRK2; expressed in transfected cells
The experiment in a line: Kinase inhibitor panel: Ser910/Ser935 phosphorylation in HEK293 cells stably expressing GFP-LRRK2. To be noted: HEK293 GFP-LRRK2, 90 minutes, inhibitors at the higher limits of concentrations routinely employed. The class given is cell-based. How it is done:
FIG. 16. HEK-293 stably expressing GFP-LRRK2 were treated with DMSO, or the following inhibitors dissolved in DMSO, at the indicated concentration for 90 minutes. […] Total LRRK2 was assessed by GFP immunoblot. The immunoblots shown are representative of 2 independent experiments. Cell transfections were performed by the polyethylenimine method. Where inhibitors are utilized, they were dissolved in DMSO and used at the indicated concentrations with an equivalent volume of DMSO used as a control. The final concentration of DMSO in the culture medium was never more than 0.1% (v/v). Inhibitors were added to the culture medium for the indicated times before lysis. Per 15 cm dish, HEK 293 cells were lysed with 1.0 ml and 3T3 cells were lysed with 0.6 ml of lysis buffer supplemented with the indicated detergent and clarified by centrifugation at 16,000×g at 4° C. for 10 minutes. After induction and inhibitor treatment, T-REx-GFP expressing cells were lysed at room temperature with SDS lysis buffer after washing with PBS. […] Protein concentrations were determined using the Bradford method with BSA as the standard. […] Immune complexes were washed twice with lysis buffer supplemented with 0.3 M NaCl and twice with Buffer A. Precipitates were either used as a source of kinase or immediately analyzed by immunoblot. […] DIG 14-3-3 was detected with HRP labelled anti-DIG Fab fragments (Roche).

In assay [2] the target is T2, LRRK2[A2016T+G2019S] (Homo sapiens, UniProt Q5S007, A2016T/G2019S).
T2 construct: expressed in transfected cells; host or cells: HEK-293 cells, transient transfection
The experiment in a line: Ser910/Ser935 phosphorylation and 14-3-3 binding of drug resistant LRRK2[A2016T+G2019S] in HEK-293 cells. The class given is cell-based. To be noted: HEK-293 over-expressing LRRK2[A2016T+G2019S], 90 minutes. How it is done: (§1) FIG. 5. […] Cells were lysed in lysis buffer supplemented with 0.5% NP40 and […] and subjected to anti-FLAG immunoprecipitation. Immunoprecipitates were resolved on 4-12% Novex SDS-polyacrylamide gels and subjected to immunoblot with FLAG (total LRRK2), anti-pS910, anti-pS935 as well as a 14-3-3 overlay assay.
(§2) Cell transfections were performed by the polyethylenimine method. Where inhibitors are utilized, they were dissolved in DMSO and used at the indicated concentrations with an equivalent volume of DMSO used as a control. The final concentration of DMSO in the culture medium was never more than 0.1% (v/v). Inhibitors were added to the culture medium for the indicated times before lysis. Per 15 cm dish, HEK 293 cells were lysed with 1.0 ml and 3T3 cells were lysed with 0.6 ml of lysis buffer supplemented with the indicated detergent and clarified by centrifugation at 16,000×g at 4° C. for 10 minutes. After induction and inhibitor treatment, T-REx-GFP expressing cells were lysed at room temperature with SDS lysis buffer after washing with PBS. SDS lysates were boiled and sonicated to reduce viscosity. When not used immediately, all lysate supernatants were snap frozen in liquid nitrogen and stored at −80° C. until use. Protein concentrations were determined using the Bradford method with BSA as the standard.
(§3) Immunological procedures. […]

The target of assay [3] is T3, wild type FLAG-LRRK2 (Homo sapiens, UniProt Q5S007).
T3 construct: overexpressed full length human FLAG-LRRK2 expressed in HEK-293 cells; expressed in transfected cells; host or cells: HEK-293 cells, transient transfection
The experiment in a line: Ser910/Ser935 dephosphorylation of wild type FLAG-LRRK2 in 293 cells. The class given is cell-based. How it is done: as §1, §2, §3

The test system of assay [4] is GFP-LRRK2 or GFP-LRRK2[G2019S]. As to the kind of experiment: Cytoplasmic localisation of GFP-LRRK2 or GFP-LRRK2[G2019S] in T-REx cells (fluorescence microscopy). Format: cell-based, human. Particulars: drug sensitive GFP-LRRK2 or GFP-LRRK2[G2019S], 90 min before fixation. How it is done: (§4) FIG. 14. Disruption of 14-3-3 binding induces accumulation of LRRK2 within cytoplasmic aggregates. A.) Stable-inducible T-REx cells lines harboring the indicated forms of LRRK2 were induced for 24 hours with 0.1 μg/ml doxycycline to induce expression of GFP-LRRK2. The indicated cell lines were treated in the absence or presence of the indicated dose of H-1152 for 90 min prior to fixation. Representative fluorescent micrographs of GFP-LRRK2 localisation are shown. Cytoplasmic aggregates of GFP-LRRK2 are indicated with white arrowheads. B.) Fluorescent micrographs representative of cultures of the indicated forms GFP-LRRK2 are shown. Cytoplasmic aggregates of GFP-LRRK2 are indicated with white arrowheads. Localisation analyses were performed in duplicate, and similar results observed in two independent experiments.
(§5) Fluorescence Microscopy. HEK-293 Flp-in T-REx were purchased from Invitrogen and stable cells harbouring GFP tagged wild type and mutant forms of LRRK2 were generated using standard protocols. Cells were plated in 4-well glass bottom, CC2 coated chamber slides (Nunc). One day after plating, cells were induced with 0.1 μg/ml doxycycline and 24 hr later, cells were fixed in 4% paraformaldehyde buffered in phosphate buffered saline (purchased from USB, # 19943). […]

The target in assay [5] is T4, endogenous LRRK2 (Mus musculus, UniProt Q5S006).
T4 construct: endogenous in cells; host or cells: Swiss 3T3 cells
The experiment in a line: Ser910/Ser935 phosphorylation and 14-3-3 binding of endogenous LRRK2 in Swiss 3T3 cells. Format: cell-based. To be noted: 90 minutes. How it is done:
as §2
Immunological procedures. Cell lysates (10-30 μg) were resolved by electrophoresis on SDS polyacrylamide gels or Novex 4-12% gradient gels, and electroblotted to nitrocellulose membranes. Membranes were blocked with 5% skimmed milk (w/v) in 50 mM Tris/HCl, pH 7.5, 0.15 M NaCl and 0.1% (v/v) Tween (TBST Buffer). […]

Assay [6] deals with T4, endogenous LRRK2. The experiment in a line: Kinase activity of endogenous LRRK2 immunoprecipitated from inhibitor-treated Swiss 3T3 cells after wash-out. The class given is biochemical. To be noted: 30 μM H1152 or 10 μM sunitinib for 2 h, inhibitor washed off, 20 μM Nictide.
Protocol: Immunoprecipitates were washed with lysis buffer containing 0.5 M NaCl to remove inhibitor and were then incubated in kinase buffer containing 20 μM Nictide with the presence or absence of magnesium-ATP for 30 min. Following incubation, immunoprecipitates were centrifuged at 8000 rpm for 0.5 min and the supernatant spotted on to P81 paper for measurement of LRRK2 kinase activity. Sample buffer was added to the pelleted beads and LRRK2 S910 and S935 phosphorylation was quantified following immunoblot analysis. A membrane was also subjected to autoradiography to assess LRRK2 autophosphorylation.
LRRK2 Immunoprecipitation Kinase assays. Peptide Kinase Assays were set up in a total volume of 50 μl with immunoprecipitated LRRK2 as a source of kinase, in 50 mM Tris pH 7.5, 0.1 mM EGTA, 10 mM MgCl2 and 0.1 mM [γ-^32P]ATP (˜500-1000 cpm/pmol) in the presence of 30 μM Nictide peptide substrate. Reactions were terminated by applying 30 μl of the reaction mixture on to P81 phosphocellulose paper and immersion in 50 mM phosphoric acid. After extensive washing, reaction products were quantitated by Cerenkov counting. One half of the remaining reaction was subjected to immunoblot analysis using the Odyssey LICOR system and specific activity is represented as cpm/LICOR independent density values.
Assay [7] deals with LRRK2 (Homo sapiens, UniProt Q5S007). To be noted: wild type LRRK2, in vitro; read-out: IC50 for inhibition of LRRK2; cited from earlier work.
In assay [8] the test system is LRRK2[A2016T] or LRRK2[A2016T+G2019S]. The experiment in a line: Cytoplasmic localisation of drug resistant GFP-LRRK2[A2016T] or [A2016T+G2019S] in T-REx cells. The class given is cell-based, human. How it is done:
as §4, §5

For assay [9], the target named is LRRK2[Ala2016Thr] (Homo sapiens, UniProt Q5S007, A2016T). To be noted: relative to normally sensitive LRRK2; cited from earlier work.
The target in assay [10] is T5, LRRK2[G2019S] (Homo sapiens, UniProt Q5S007, G2019S).
T5 construct: expressed in transfected cells; host or cells: HEK-293 cells, transient transfection
The experiment in a line: Ser910/Ser935 phosphorylation and 14-3-3 binding of Flag-LRRK2[G2019S] in HEK-293 cells. The class given is cell-based. How it is done:
as §1, §2, §3

T4 sequence (Q5S006 whole entry): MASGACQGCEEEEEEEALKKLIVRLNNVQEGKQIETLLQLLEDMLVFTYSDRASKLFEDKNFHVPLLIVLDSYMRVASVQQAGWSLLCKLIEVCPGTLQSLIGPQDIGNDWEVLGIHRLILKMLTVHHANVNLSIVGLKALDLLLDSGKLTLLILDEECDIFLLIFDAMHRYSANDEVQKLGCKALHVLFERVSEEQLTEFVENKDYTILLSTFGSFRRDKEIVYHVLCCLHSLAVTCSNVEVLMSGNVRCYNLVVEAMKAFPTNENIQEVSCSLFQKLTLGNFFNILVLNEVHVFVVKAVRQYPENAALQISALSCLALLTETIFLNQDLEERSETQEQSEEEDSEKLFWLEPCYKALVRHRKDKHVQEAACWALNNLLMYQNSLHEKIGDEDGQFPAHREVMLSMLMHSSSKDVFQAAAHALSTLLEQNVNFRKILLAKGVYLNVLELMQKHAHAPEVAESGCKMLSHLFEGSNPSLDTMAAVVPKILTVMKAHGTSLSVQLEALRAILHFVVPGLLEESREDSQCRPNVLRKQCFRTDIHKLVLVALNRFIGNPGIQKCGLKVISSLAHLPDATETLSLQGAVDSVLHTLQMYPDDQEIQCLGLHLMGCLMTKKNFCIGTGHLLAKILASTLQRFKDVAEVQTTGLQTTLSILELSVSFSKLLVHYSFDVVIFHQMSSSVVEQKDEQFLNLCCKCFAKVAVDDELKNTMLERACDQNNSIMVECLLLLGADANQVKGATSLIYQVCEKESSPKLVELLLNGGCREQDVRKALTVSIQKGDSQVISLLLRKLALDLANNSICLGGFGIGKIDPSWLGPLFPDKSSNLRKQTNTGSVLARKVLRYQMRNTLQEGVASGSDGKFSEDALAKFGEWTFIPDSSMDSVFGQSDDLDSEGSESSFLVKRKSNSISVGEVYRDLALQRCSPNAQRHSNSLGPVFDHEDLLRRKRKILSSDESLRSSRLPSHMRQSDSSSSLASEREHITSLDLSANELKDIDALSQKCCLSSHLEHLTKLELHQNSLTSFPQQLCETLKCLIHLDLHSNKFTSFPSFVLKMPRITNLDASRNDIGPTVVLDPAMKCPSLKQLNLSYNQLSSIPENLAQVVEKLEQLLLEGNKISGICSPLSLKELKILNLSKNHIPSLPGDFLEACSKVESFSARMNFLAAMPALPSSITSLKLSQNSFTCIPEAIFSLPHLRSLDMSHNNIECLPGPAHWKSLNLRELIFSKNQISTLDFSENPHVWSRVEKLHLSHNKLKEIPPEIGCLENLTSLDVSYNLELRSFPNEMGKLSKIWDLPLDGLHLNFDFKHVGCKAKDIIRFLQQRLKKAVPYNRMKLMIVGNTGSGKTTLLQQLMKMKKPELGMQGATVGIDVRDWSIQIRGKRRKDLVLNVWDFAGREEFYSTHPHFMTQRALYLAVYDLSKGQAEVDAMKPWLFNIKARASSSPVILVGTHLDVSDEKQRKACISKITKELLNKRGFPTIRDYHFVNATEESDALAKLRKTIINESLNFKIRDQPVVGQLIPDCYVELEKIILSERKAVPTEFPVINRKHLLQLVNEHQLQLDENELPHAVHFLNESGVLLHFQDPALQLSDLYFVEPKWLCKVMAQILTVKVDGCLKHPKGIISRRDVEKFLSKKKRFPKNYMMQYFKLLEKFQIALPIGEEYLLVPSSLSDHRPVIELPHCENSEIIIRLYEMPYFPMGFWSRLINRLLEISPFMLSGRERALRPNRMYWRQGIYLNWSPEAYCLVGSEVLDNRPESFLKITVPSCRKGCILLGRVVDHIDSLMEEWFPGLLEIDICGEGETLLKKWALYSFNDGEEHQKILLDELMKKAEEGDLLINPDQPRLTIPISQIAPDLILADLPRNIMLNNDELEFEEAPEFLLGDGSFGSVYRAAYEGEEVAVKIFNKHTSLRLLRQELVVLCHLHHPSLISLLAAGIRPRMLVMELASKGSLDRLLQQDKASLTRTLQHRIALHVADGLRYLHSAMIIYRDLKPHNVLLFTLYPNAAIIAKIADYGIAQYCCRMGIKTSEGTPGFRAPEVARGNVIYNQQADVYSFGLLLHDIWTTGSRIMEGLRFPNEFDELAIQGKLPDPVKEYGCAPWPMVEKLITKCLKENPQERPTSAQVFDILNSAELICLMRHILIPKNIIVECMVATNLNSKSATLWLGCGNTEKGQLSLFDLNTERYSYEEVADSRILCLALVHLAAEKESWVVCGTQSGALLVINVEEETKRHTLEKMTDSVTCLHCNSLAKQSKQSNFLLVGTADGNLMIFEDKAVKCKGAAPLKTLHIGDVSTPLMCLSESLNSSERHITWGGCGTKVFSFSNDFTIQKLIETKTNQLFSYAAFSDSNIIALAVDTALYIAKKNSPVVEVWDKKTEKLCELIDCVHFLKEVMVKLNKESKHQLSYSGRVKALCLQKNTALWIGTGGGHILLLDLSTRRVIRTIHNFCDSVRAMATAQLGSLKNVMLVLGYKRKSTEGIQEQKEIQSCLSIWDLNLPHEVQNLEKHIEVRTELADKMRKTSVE
T5 sequence (Q5S007 whole entry G2019S): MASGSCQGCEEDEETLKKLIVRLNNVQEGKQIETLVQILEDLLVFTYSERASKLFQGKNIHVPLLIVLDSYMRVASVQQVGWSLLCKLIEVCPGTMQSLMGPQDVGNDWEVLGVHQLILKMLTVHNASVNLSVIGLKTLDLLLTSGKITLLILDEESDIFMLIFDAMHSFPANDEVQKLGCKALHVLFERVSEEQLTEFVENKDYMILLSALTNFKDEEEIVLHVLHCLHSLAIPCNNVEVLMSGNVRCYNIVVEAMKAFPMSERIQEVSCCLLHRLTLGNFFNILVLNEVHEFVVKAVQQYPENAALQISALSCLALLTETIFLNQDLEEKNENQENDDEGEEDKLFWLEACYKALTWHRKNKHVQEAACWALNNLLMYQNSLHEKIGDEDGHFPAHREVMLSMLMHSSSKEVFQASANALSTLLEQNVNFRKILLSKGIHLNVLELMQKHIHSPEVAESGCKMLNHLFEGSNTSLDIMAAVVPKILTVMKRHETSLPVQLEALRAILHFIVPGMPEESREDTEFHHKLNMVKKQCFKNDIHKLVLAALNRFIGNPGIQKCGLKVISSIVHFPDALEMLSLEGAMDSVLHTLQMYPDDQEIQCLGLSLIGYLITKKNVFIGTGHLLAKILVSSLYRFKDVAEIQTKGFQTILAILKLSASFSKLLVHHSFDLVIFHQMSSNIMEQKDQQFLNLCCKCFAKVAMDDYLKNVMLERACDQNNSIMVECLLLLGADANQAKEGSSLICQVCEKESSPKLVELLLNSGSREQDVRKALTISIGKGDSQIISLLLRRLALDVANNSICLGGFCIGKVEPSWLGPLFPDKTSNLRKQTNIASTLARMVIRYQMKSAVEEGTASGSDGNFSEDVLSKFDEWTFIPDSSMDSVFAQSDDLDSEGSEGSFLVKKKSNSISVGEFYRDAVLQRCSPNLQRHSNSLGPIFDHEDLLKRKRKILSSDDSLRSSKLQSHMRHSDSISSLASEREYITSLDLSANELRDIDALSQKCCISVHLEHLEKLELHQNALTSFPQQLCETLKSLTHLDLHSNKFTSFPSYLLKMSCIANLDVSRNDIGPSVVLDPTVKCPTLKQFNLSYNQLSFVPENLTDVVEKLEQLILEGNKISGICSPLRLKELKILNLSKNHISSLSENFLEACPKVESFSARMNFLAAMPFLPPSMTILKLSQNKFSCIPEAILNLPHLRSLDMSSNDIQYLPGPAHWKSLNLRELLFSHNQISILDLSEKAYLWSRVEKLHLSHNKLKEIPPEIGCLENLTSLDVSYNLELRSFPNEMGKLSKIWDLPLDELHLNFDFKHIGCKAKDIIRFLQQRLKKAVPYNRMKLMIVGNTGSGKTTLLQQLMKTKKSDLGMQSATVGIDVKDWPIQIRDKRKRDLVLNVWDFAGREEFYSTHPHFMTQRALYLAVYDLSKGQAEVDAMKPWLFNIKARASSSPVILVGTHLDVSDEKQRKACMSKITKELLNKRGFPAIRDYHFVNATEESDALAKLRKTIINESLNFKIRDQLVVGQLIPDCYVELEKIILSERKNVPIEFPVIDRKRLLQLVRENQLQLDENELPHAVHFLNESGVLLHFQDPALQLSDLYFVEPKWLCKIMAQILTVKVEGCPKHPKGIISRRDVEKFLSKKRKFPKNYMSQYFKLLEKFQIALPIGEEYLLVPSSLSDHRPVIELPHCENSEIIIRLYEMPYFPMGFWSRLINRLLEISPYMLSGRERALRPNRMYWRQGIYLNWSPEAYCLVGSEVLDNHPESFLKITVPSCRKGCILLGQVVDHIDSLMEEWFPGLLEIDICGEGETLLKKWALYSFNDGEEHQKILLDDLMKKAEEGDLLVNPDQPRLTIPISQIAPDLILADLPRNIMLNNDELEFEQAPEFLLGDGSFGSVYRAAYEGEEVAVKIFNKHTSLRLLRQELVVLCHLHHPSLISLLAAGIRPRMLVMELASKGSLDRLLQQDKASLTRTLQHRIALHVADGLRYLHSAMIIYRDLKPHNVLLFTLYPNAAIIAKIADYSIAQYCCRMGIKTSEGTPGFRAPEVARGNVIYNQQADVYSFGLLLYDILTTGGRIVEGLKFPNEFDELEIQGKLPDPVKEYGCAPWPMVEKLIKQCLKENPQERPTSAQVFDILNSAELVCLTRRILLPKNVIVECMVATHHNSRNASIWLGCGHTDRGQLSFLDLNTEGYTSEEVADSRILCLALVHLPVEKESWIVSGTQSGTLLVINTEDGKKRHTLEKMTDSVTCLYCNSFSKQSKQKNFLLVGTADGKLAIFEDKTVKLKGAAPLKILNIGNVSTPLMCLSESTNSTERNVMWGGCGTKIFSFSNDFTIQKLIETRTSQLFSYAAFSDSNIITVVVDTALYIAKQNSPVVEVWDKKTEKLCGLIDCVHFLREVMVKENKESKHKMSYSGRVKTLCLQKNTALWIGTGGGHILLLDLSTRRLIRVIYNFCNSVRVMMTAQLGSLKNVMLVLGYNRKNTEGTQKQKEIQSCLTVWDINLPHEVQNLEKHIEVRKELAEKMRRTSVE
Chain of LRRK2[Ala2016Thr] (Q5S007 whole entry A2016T): as the sequence (Q5S007 whole entry G2019S) above, with A2016T, S2019G counted along it
T3 sequence (Q5S007 whole entry): as the sequence (Q5S007 whole entry G2019S) above, with S2019G counted along it
Chain of LRRK2 (Q5S007 whole entry): as the sequence (Q5S007 whole entry G2019S) above, with S2019G counted along it

In the case of `N#CC(c1ccnc(NCCc2cccnc2)n1)c1nc2ccccc2s1` (stereo not drawn) [AS601245], the “dephosphorylation of Ser910/Ser935” value in assay [1] is on record as “did not induce dephosphorylation”.

Regarding `Cc1cncc2cccc(S(=O)(=O)N3CCCNC[C@@H]3C)c12` [H-1152], the “inhibition of Ser910 or Ser935 phosphorylation or 14-3-3 binding of drug resistant mutant” value in [2] is reported as “neither H-1152 nor sunitinib significantly inhibited”. The “potency at inducing dephosphorylation of wild type FLAG-LRRK2 compared with endogenous LRRK2 in Swiss 3T3 cells” value in assay [3] is “similar”. The “accumulation of LRRK2 within cytoplasmic pools” value is given as “marked accumulation of LRRK2 within cytoplasmic pools” in [4] and “no cytoplasmic pool accumulation” in assay [8]. Besides, the “concentration inducing almost complete dephosphorylation of Ser910 and Ser935 and loss of 14-3-3 binding” value in assay [5] was in the range of 10 to 30 µM. Besides, in [5] (increasing amounts of inhibitor), the “dephosphorylation of endogenous LRRK2 at Ser910 and Ser935 with concomitant reduction in 14-3-3 binding” value was “dose dependent dephosphorylation”. Also, the “endogenous LRRK2 kinase activity after treatment of cells” value in [6] was “did not affect”. Besides, the IC50 in assay [7] was 0.15 µM. The “fold less sensitive: drug resistant LRRK2[Ala2016Thr] mutant” value in [9] is 32 fold. Besides, the “potency in inducing dephosphorylation and impairing 14-3-3 binding: LRRK2[G2019S] compared with wild type LRRK2” value in assay [10] (HEK-293 cells, Flag-LRRK2 forms) is recorded as “more potent”. The “dephosphorylation of LRRK2[G2019S] at Ser910 and Ser935 and disruption of 14-3-3 binding” value in [10] (HEK-293 over-expressing LRRK2[G2019S], 90 minutes) is “dose-dependent dephosphorylation”.
